Legend:
Type in all cases: cell-based
[1] = tested on: mixed bacterial inoculum (Pseudomonas aeruginosa, Enterobacter cloacae, Escherichia coli, Acinetobacter calcoaceticus); test: Repeated inoculation of standard acrylic paint, streak plate rating
How it was run: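 Acrylic paint containing pyrithione, isothiazolinone and biocide enhancing agent, alone or mixed at varied concentrations, was challenged three times with an aqueous suspension of the four bacteria in equal proportions. Samples were streak plated 24, 48 and 72 h after inoculation and the plates rated for growth.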

[2] = tested on: Pseudomonas aeruginosa ATCC 15442; test: Minimum Inhibitory Concentration (MIC) test, 96 well microtiter plate; settings: single chemical
Procedure: Microorganisms: Pseudomonas aeruginosa ATCC 15442
MIC set up: A 96 well microtiter plate Minimum Inhibitory Concentration (MIC) test was run in broth suitable for the test organism. Serially diluted actives were prepared in sterilized water, and the start-up concentration varied depending on the efficacy range. Inocula prepared in 2× suitable broth was added into each well, and the final concentrations of bacteria were adjusted to approximately 5×10^5.

Aspergillus brasiliensis = test: MIC test, 96 well microtiter plate; settings: single chemical
How it was run: (§1)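 Broth microdilution MIC in broth suited to each organism; actives serially diluted in sterile water, starting concentration set by efficacy range. Inoculum in 2× broth added per well to approximately 5×10^5 final. Amines also tested combined with a pyrithione and two isothiazolinones.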

Escherichia coli = test: MIC test, 96 well microtiter plate; settings: single chemical
How it was run: as §1

Candida albicans = test: MIC test, 96 well microtiter plate; settings: single chemical
How it was run: as §1

Aureobasidium pullulans = test: MIC test, 96 well microtiter plate; settings: single chemical
How it was run: as §1

Staphylococcus aureus = test: MIC test, 96 well microtiter plate; settings: single chemical
How it was run: as §1

Zinc Pyrithione [ZnPT]
streak plate rating ([1]; Set Five, ZPT 50 ppm, 1st inoculation 24 h): 0
streak plate rating ([1]; Set Five, ZPT 50 ppm, 1st inoculation 48 h): 0
streak plate rating ([1]; Set Five, ZPT 50 ppm, 1st inoculation 72 h): 0
streak plate rating ([1]; Set Five, ZPT 50 ppm, 2nd inoculation 24 h): 2 (6-15 viable microorganisms Lightly contaminated)
streak plate rating ([1]; Set Five, ZPT 50 ppm, 2nd inoculation 48 h): 0
streak plate rating ([1]; Set Five, ZPT 50 ppm, 2nd inoculation 72 h): 0
streak plate rating ([1]; Set Five, ZPT 50 ppm, 3rd inoculation 24 h): 3 (16-30 viable microorganisms Moderately contaminated)
streak plate rating ([1]; Set Five, ZPT 50 ppm, 3rd inoculation 48 h): 5 (>45 viable microorganisms Severely contaminated)
streak plate rating ([1]; Set Five, ZPT 50 ppm, 3rd inoculation 72 h): 5 (>45 viable microorganisms Severely contaminated)
streak plate rating ([1]; Set Four, ZPT 50 ppm, 1st inoculation 24 h): 0
streak plate rating ([1]; Set Four, ZPT 50 ppm, 1st inoculation 48 h): 0
streak plate rating ([1]; Set Four, ZPT 50 ppm, 1st inoculation 72 h): 0
streak plate rating ([1]; Set Four, ZPT 50 ppm, 2nd inoculation 24 h): 2 (6-15 viable microorganisms Lightly contaminated)
streak plate rating ([1]; Set Four, ZPT 50 ppm, 2nd inoculation 48 h): 0
streak plate rating ([1]; Set Four, ZPT 50 ppm, 2nd inoculation 72 h): 0
streak plate rating ([1]; Set Four, ZPT 50 ppm, 3rd inoculation 24 h): 3 (16-30 viable microorganisms Moderately contaminated)
streak plate rating ([1]; Set Four, ZPT 50 ppm, 3rd inoculation 48 h): 5 (>45 viable microorganisms Severely contaminated)
streak plate rating ([1]; Set Four, ZPT 50 ppm, 3rd inoculation 72 h): 5 (>45 viable microorganisms Severely contaminated)
streak plate rating ([1]; Set One, ZPT 50 ppm, 1st inoculation 24 h): 3 (16-30 viable microorganisms Moderately contaminated)
streak plate rating ([1]; Set One, ZPT 50 ppm, 1st inoculation 48 h): 3 (16-30 viable microorganisms Moderately contaminated)
streak plate rating ([1]; Set One, ZPT 50 ppm, 2nd inoculation 24 h): 5 (>45 viable microorganisms Severely contaminated)
streak plate rating ([1]; Set One, ZPT 50 ppm, 2nd inoculation 48 h): 5 (>45 viable microorganisms Severely contaminated)
streak plate rating ([1]; Set One, ZPT 50 ppm, 2nd inoculation 72 h): 5 (>45 viable microorganisms Severely contaminated)
streak plate rating ([1]; Set One, ZPT 50 ppm, 3rd inoculation 24 h): 5 (>45 viable microorganisms Severely contaminated)
streak plate rating ([1]; Set One, ZPT 50 ppm, 3rd inoculation 48 h): 5 (>45 viable microorganisms Severely contaminated)
streak plate rating ([1]; Set One, ZPT 50 ppm, 3rd inoculation 72 h): 5 (>45 viable microorganisms Severely contaminated)
streak plate rating ([1]; Set Three, ZPT 50 ppm, 1st inoculation 24 h): 5 (>45 viable microorganisms Severely contaminated)
streak plate rating ([1]; Set Three, ZPT 50 ppm, 1st inoculation 48 h): 3 (16-30 viable microorganisms Moderately contaminated)
streak plate rating ([1]; Set Three, ZPT 50 ppm, 1st inoculation 72 h): 5 (>45 viable microorganisms Severely contaminated)
streak plate rating ([1]; Set Three, ZPT 50 ppm, 2nd inoculation 24 h): 5 (>45 viable microorganisms Severely contaminated)
streak plate rating ([1]; Set Three, ZPT 50 ppm, 2nd inoculation 48 h): 5 (>45 viable microorganisms Severely contaminated)
streak plate rating ([1]; Set Three, ZPT 50 ppm, 2nd inoculation 72 h): 5 (>45 viable microorganisms Severely contaminated)
streak plate rating ([1]; Set Three, ZPT 50 ppm, 3rd inoculation 24 h): 5 (>45 viable microorganisms Severely contaminated)
streak plate rating ([1]; Set Three, ZPT 50 ppm, 3rd inoculation 48 h): 5 (>45 viable microorganisms Severely contaminated)
streak plate rating ([1]; Set Three, ZPT 50 ppm, 3rd inoculation 72 h): 5 (>45 viable microorganisms Severely contaminated)
streak plate rating ([1]; Set Two, ZPT 25 ppm, 1st inoculation 24 h): 5 (>45 viable microorganisms Severely contaminated)
streak plate rating ([1]; Set Two, ZPT 25 ppm, 1st inoculation 48 h): 5 (>45 viable microorganisms Severely contaminated)
streak plate rating ([1]; Set Two, ZPT 25 ppm, 1st inoculation 72 h): 5 (>45 viable microorganisms Severely contaminated)
streak plate rating ([1]; Set Two, ZPT 25 ppm, 2nd inoculation 24 h): 5 (>45 viable microorganisms Severely contaminated)
streak plate rating ([1]; Set Two, ZPT 25 ppm, 2nd inoculation 48 h): 5 (>45 viable microorganisms Severely contaminated)
streak plate rating ([1]; Set Two, ZPT 25 ppm, 2nd inoculation 72 h): 5 (>45 viable microorganisms Severely contaminated)
streak plate rating ([1]; Set Two, ZPT 25 ppm, 3rd inoculation 24 h): 5 (>45 viable microorganisms Severely contaminated)
streak plate rating ([1]; Set Two, ZPT 25 ppm, 3rd inoculation 48 h): 5 (>45 viable microorganisms Severely contaminated)
streak plate rating ([1]; Set Two, ZPT 25 ppm, 3rd inoculation 72 h): 5 (>45 viable microorganisms Severely contaminated)
streak plate rating ([1]; Set Two, ZPT 50 ppm, 1st inoculation 24 h): 2 (6-15 viable microorganisms Lightly contaminated)
streak plate rating ([1]; Set Two, ZPT 50 ppm, 1st inoculation 48 h): 3 (16-30 viable microorganisms Moderately contaminated)
streak plate rating ([1]; Set Two, ZPT 50 ppm, 1st inoculation 72 h): 3 (16-30 viable microorganisms Moderately contaminated)
streak plate rating ([1]; Set Two, ZPT 50 ppm, 2nd inoculation 24 h): 4 (31-45 viable microorganisms Heavily contaminated)
streak plate rating ([1]; Set Two, ZPT 50 ppm, 2nd inoculation 48 h): 5 (>45 viable microorganisms Severely contaminated)
streak plate rating ([1]; Set Two, ZPT 50 ppm, 2nd inoculation 72 h): 5 (>45 viable microorganisms Severely contaminated)
streak plate rating ([1]; Set Two, ZPT 50 ppm, 3rd inoculation 24 h): 5 (>45 viable microorganisms Severely contaminated)
streak plate rating ([1]; Set Two, ZPT 50 ppm, 3rd inoculation 48 h): 5 (>45 viable microorganisms Severely contaminated)
streak plate rating ([1]; Set Two, ZPT 50 ppm, 3rd inoculation 72 h): 5 (>45 viable microorganisms Severely contaminated)
Minimum Inhibitory Concentration [2]: 62.5 ppm
Minimum Inhibitory Concentration (Aspergillus brasiliensis): 15.6 ppm
Minimum Inhibitory Concentration (Escherichia coli): 3.9 ppm
Minimum Inhibitory Concentration (Candida albicans): 7.8 ppm
Minimum Inhibitory Concentration (Aureobasidium pullulans): 3.9 ppm
Minimum Inhibitory Concentration (Staphylococcus aureus): 7.8 ppm
